According to article PMC8241846, “Structure and lipid dynamics in the maintenance of lipid asymmetry inner membrane complex of A. baumannii” (Communications Biology, 2021):

Experiments:
MlaBDEFab [1] = biological target: T1, MlaBDEFab (Acinetobacter baumannii, UniProt A0A4P2WWN2+V5V921+V5V9F4); assay: cryo-EM map, […] A (no model deposited); type: binding; details: protein mixed 1:1 with 20 mM nucleotide, pH 8.0, 0.025% DDM; same nucleotide site; EMD-11084 in Table 1
T1 construct: gene ttg2A; full mla operon expressed in E. coli BL21(DE3), Ni-NTA purified (tag not described), in DDM; C2 complex MlaF2-MlaE2-MlaD6-MlaB2 (about half of particles with one MlaB)

MlaBDEFab [2] = biological target: T1, MlaBDEFab; assay: cryo-EM structure, […] A; type: binding; details: Mg2+ seen in site; protein mixed 1:1 with 20 mM nucleotide, pH 8.0, 0.025% DDM; nucleotide site at MlaF/MlaE/MlaD interface (MlaF Lys55, Ser51, His211, Arg26); non-hydrolysable ATP analogue
[3] = biological target: MlaD of the A. baumannii MlaBDEF complex (MlaBDEFab) (Acinetobacter baumannii) (UniProt V5V921); assay: cryo-EM structure; single-particle cryo-EM of the purified MlaBDEFab complex in DDM; 20 mM Hepes (pH 7.0), 150 mM NaCl, 0.025% (w/v) DDM; with AppNHp (3.9 Å, atomic model), also apo (~4.2 Å) and with ADP (~4.4 Å)
[4] = biological target: MlaF of the A. baumannii MlaBDEF complex (MlaBDEFab) (Acinetobacter baumannii); assay: as above

Molecule: Nc1ncnc2c1ncn2[C@@H]1O[C@H](COP(=O)(O)OP(=O)(O)O)[C@@H](O)[C@H]1O [ADP]
- cryo-EM map, 4.43 A (no model deposited) (MlaBDEFab [1]): confirms the presence of nucleotide in the AppNHp and ADP maps

Molecule: Nc1ncnc2c1ncn2[C@@H]1O[C@H](COP(=O)(O)OP(=O)(O)NP(=O)(O)O)[C@@H](O)[C@H]1O [AppNHp]
- cryo-EM structure, 3.92 A (MlaBDEFab [2]): we observed clear density of the nucleotide and magnesium, within the MlaF binding pocket

Molecule: MlaD of the A. baumannii MlaBDEF complex (MlaBDEFab) (from UniProt V5V921 1-226) (natural protein)
- stoichiometry N [3]: 6

B1: MlaB of the A. baumannii MlaBDEF complex (MlaBDEFab) (natural protein)
chain: MVQYLNQELVVSGKIDFENAEQQYQAGLAIIKKQTSFPLIVDLKQLEHGNTLALAVLVQWLRQTPQKSGLHFKNVPEKMLKIIQACHLQEDLHLV
- percent of particles with MlaB bound to both MlaF [4]: 50%
